{"source": "patent US7973064B2", "about": "“Method and composition for potentiating an opiate analgesic” (The Board of Trustees of the University of Illinois, priority 2001, dated 2011)", "key": {"[1]": {"assay": "Body weight in mice given BQ123 and morphine", "format": "in vivo, mouse", "details": "BQ123 and morphine 2, 4, or 8 mg/kg", "method": "Tests also were performed on mice."}, "[2]": {"tested_on": "morphine tolerant dependent rats", "assay": "Tolerance to analgesic effect in morphine tolerant dependent rats", "format": "in vivo, rat", "details": "6 morphine pellets in 7-day period, BQ123 10 μg i.c.v. twice a day for 7 days", "method": "(§1) FIGS. 6-8 illustrate the ability of an endothelin antagonist to […] opiate analgesic tolerance in mice and rats rendered tolerant and dependent on morphine. The test method used to generate the data set forth in FIGS. 6-8 is disclosed in H. N. Bhargava et al., J. Pharmacol. Exp. Ther., 252(3), pp. 901-907 (1990). The method disclosed therein was modified slightly for mice because the smaller mice could not survive the morphine dose administered to the rats.\n(§2) The effect of BQ123 (3 μg, i.c.v.) on naloxone-precipitated morphine withdrawal also was determined in mice. […] Tests also were performed to determine tolerance to analgesic effect in morphine tolerant dependent rats (6 morphine pellets in 7-day period)."}, "[3]": {"tested_on": "mice", "assay": "Tail flick analgesia in mice", "format": "in vivo, mouse", "details": "morphine 2, 4, and 8 mg/kg s.c.", "method": "(§3) Tests also were performed on mice. The mice were housed and fed similar to the rats as described above taking into consideration the size differential between rats and mice. The mice were divided into groups identical to the rats, but administered different amounts of vehicle, opiate analgesic, and endothelin antagonist, as disclosed hereafter.\n(§4) Measurement of analgesic effect: The analgesic response to morphine was determined by the tail flick method. The tail flick latencies to thermal stimulation were determined before and 30, 60, 90, 120, 180, 210, 240, 270, 300, and 360 minutes after the morphine injection. […] A cutoff time of 10 seconds was used to prevent damage to the tail. The basal latency was subtracted from that induced by morphine. […] The differences in analgesic response to different doses of morphine were compared by using student's t test. A value of P<0.05 was considered significant."}, "[4]": {"tested_on": "Male Sprague-Dawley rats", "assay": "Tail flick analgesia in rats", "format": "in vivo, rat", "details": "for effect on tail flick latency (analgesia), drug alone: morphine 8 mg/kg s.c. or BQ123 10 μg i.c.v.", "method": "(§5) Male Sprague-Dawley rats weighing 225 to 250 g (Sasco King Animal Co., Madison, Wis.) were housed in a room with controlled temperature (23±1° C.), humidity (50±10%), and light (6:00 a.m. to 6:00 p.m.) for at least four days prior to testing. Food and water were available to the rats continuously.\n(§6) The rats were divided into four groups (FIG. 1): group 1 received vehicle (saline 5 μl, i.c.v. over 5 minutes) and vehicle (saline 100 μl/kg s.c.); group 2 received vehicle (saline 100 μl/kg, s.c.) and BQ123 (10 μg, i.c.v. in a volume of 5 μl over 5 minutes); group 3 received morphine (8 mg/kg, s.c. in a volume of 100 μl/kg) and vehicle (saline 100 μl/kg, s.c.); and group 4 received morphine (8 mg/kg, s.c. in a volume of 100 μl/kg) and BQ123 (10 μg, i.c.v. in a volume of 5 μl over 5 minutes). Vehicle or BQ123 treatment was performed 30 minutes prior to morphine administration.\nas §4"}, "[5]": {"tested_on": "morphine tolerant mice", "assay": "Naloxone-precipitated morphine withdrawal in mice", "format": "in vivo, mouse", "details": "1 morphine 75 mg pellet for 3 days, naloxone 1 mg/kg i.p., BQ123 3 μg i.c.v.", "method": "as §2"}, "[6]": {"assay": "Body weight in rats", "format": "in vivo, rat", "details": "before any drug and seven hours after morphine, BQ123 10 μg i.c.v., morphine 8 mg/kg s.c.", "method": "as §6\nEffect on body weight: Body weight was measured in all groups of rats of FIG. 1. […] Body weight was measured before administering any drug and at the end of the experiment, i.e., seven hours after the administration of morphine."}, "[7]": {"tested_on": "mice rendered tolerant and dependent on morphine", "assay": "Morphine tolerance in mice", "format": "in vivo, mouse", "details": "FIGS. 6-8", "text": "as §1"}, "[8]": {"tested_on": "Male Sprague-Dawley rats", "assay": "Catalepsy bar test in rats", "format": "in vivo, rat", "details": "for catalepsy (bar test), drug alone: 45 minutes after morphine or vehicle, morphine 8 mg/kg s.c. or BQ123 10 μg i.c.v.", "method": "as §5, §6\nMeasurement of catalepsy: Rats were tested for catalepsy by the bar test. An aluminum bar 5 mm in diameter was placed 4 cm above the floor, and the animal's forepaw was gently placed on the bar. The time required for the animal to place at least one paw on the floor was measured with a maximum term of observation of 180 seconds. Behavioral evaluation of catalepsy was performed 45 minutes after the administration of morphine or its vehicle. Statistical tests were performed as described above."}, "[9]": {"tested_on": "mice", "details": "BQ123 and morphine 2, 4, or 8 mg/kg", "method": "as §3"}, "[10]": {"tested_on": "rat sciatic nerve", "details": "ET-1 200 to 800 μM applied to sciatic nerve, pretreatment; cited from earlier work"}, "[11]": {"tested_on": "Male Sprague-Dawley rats", "assay": "Colonic temperature in rats", "format": "in vivo, rat", "details": "for effect on body temperature, drug alone: morphine 8 mg/kg s.c. or BQ123 10 μg i.c.v.", "method": "as §5, §6\nMeasurement of colonic temperature: The change in temperature in response to morphine was determined. The colonic temperature of each rat was recorded before and various times after morphine injection for a period of 360 minutes using a tele-thermometer. […] Rats used to measure tail flick latencies also were used to determine the colonic temperature. The differences in temperature response between various groups were compared by using student's t test. A value of P<0.05 was considered significant."}, "[12]": {"tested_on": "streptozotocin-induced diabetic rat", "details": "cited from earlier work; for increase in tactile allodynia thresholds: systemic administration"}, "[13]": {"tested_on": "Cr1:CD-1(ICR)BR mice and CXBK mice", "details": "ET-1 intraperitoneally, through μ1 sensitive pathway; cited from earlier work"}, "[14]": {"details": "BQ123 10 μg i.c.v. 30 minutes prior to morphine 8 mg/kg s.c."}}, "note": "Entries after “also recorded” stand apart in the source; their conditions may differ. Square brackets hold non-standard residues; d marks the D form. Peptide text beside a SMILES is read from it.", "data": [{"smiles": "CC(C)C[C@@H]1NC(=O)[C@@H](C(C)C)NC(=O)[C@@H]2CCCN2C(=O)[C@@H](CC(=O)O)NC(=O)[C@@H](Cc2c[nH]c3ccccc23)NC1=O", "note": "[BQ123, cyclo(-D-Trp-D-Asp-Pro-D-Val-Leu-)] (cyclo(L[dW][dD]P[dV]))", "values": [{"measurement": "effect on body weight", "setting": "[1]", "value": "not affected"}, {"measurement": "development of tolerance to morphine analgesic effect", "setting": "[2]", "value": "did not become tolerant to morphine"}, {"measurement": "duration of morphine analgesia with BQ123", "setting": "[3]; BQ123 3 μg i.c.v.", "value": "more than 4 hours"}, {"measurement": "effect of BQ123 on morphine analgesia", "setting": "[3]; BQ123 3 μg i.c.v.", "value": "significantly potentiated morphine analgesia; also recorded: analgesia was potentiated"}, {"measurement": "duration of morphine analgesia in BQ123 pretreated rats", "setting": "[4]; [14]", "value": "more than six"}, {"measurement": "effect of BQ123 on analgesic effect of morphine", "setting": "[4]; [14]", "value": "significantly potentiated"}, {"measurement": "effect on tail flick latency (analgesia), drug alone", "setting": "[4]", "value": "did not produce any significant effect on tail flick latency"}, {"measurement": "effect on naloxone-precipitated morphine withdrawal symptoms", "setting": "[5]", "value": "did not affect hypothermia, loss of body weight, jumping behavior, falls, diarrhea, fecal boli, urination, ptosis, writhing, and rearing behavior during withdrawal; also recorded: no effect on temperature, body weight, urination, diarrhea, jumping behavior, number of falls, ptosis, and grooming"}, {"measurement": "change in body weight", "setting": "[6]", "value": "no change in body weight"}, {"measurement": "morphine tolerance after treatment with endothelin antagonist", "setting": "[7]", "value": "reduced morphine tolerance"}, {"measurement": "catalepsy (bar test), drug alone", "setting": "[8]", "value": "did not produce any cataleptic effect"}, {"measurement": "effect of BQ123 pretreatment on morphine-induced catalepsy", "setting": "[8]; [14]", "value": "did not produce any change in morphine-induced catalepsy"}, {"measurement": "effect of BQ123 on morphine-induced hypothermia", "setting": "[9]", "value": "not affected"}, {"measurement": "effect on ET-1 induced hindpaw flinching", "setting": "[10]", "value": "blocked"}, {"measurement": "duration of morphine hyperthermia in BQ123 pretreated rats", "setting": "[11]; [14]", "value": "more than six"}, {"measurement": "effect of BQ123 on hyperthermic effect of morphine", "setting": "[11]; [14]", "value": "significantly potentiated"}, {"measurement": "effect on body temperature, drug alone", "setting": "[11]", "value": "did not produce any significant effect on body temperature"}]}, {"smiles": "Cc1noc(NS(=O)(=O)c2cccc3c(N(C)C)cccc23)c1C", "note": "[BMS182874]", "values": [{"measurement": "morphine tolerance after treatment with endothelin antagonist", "setting": "[7]", "value": "reduced morphine tolerance"}]}, {"smiles": "CN1CC[C@]23c4c5ccc(O)c4O[C@H]2[C@@H](O)C=C[C@H]3[C@H]1C5", "note": "[morphine]", "values": [{"measurement": "increase in tactile allodynia thresholds", "setting": "[12]", "value": 90, "unit": "%"}, {"measurement": "duration of increase in tail flick latency, morphine alone", "setting": "[3]", "value": 1.5, "unit": "h"}, {"measurement": "effect on mouse tail flick latency, morphine alone", "setting": "[3]", "value": "significant increase in mouse tail flick latency"}, {"measurement": "time after administration until which tail flick latencies were significantly increased, morphine alone", "setting": "[4]; morphine 8 mg/kg s.c.", "value": "three"}, {"measurement": "effect on tail flick latency (analgesia), drug alone", "setting": "[4]", "value": "produced significant analgesia"}, {"measurement": "tail flick latency", "setting": "[4]; morphine 8 mg/kg s.c., control about 2 seconds", "value": "more than 10 seconds"}, {"measurement": "effect on ET-1 induced nociception", "setting": "[13]", "value": "could be blocked by morphine"}, {"measurement": "change in body weight", "setting": "[6]", "value": "neither morphine nor BQ123 produced any acute effect on body weight"}, {"measurement": "catalepsy (bar test), drug alone", "setting": "[8]", "value": "significantly increased catalepsy"}, {"measurement": "effect on ET-1 induced hindpaw flinching", "setting": "[10]", "value": "completely blocked"}, {"measurement": "duration of hyperthermia, morphine alone", "setting": "[11]; morphine 8 mg/kg s.c.", "value": "about four"}, {"measurement": "effect on body temperature, drug alone", "setting": "[11]", "value": "produced significant hyperthermia"}]}, {"smiles": "CCCCN(CCCC)C(=O)CN1C[C@H](c2ccc3c(c2)OCO3)[C@@H](C(=O)O)[C@@H]1c1ccc(OC)cc1", "note": "[ABT-627]", "values": [{"measurement": "antinociceptive effect following chronic administration", "setting": "[12]; in drinking water for 7 days", "value": "maintained"}, {"measurement": "increase in tactile allodynia thresholds", "setting": "[12]", "value": "40 to 50", "unit": "%"}]}]}
